# Test system: 3E7 Fab
# Experiment: Dissociation of [125I]Fab from fusion phage clones
# Format: binding, mouse
# Parameters: key to Dissociation t1/2 (minutes): **: indicates that initial binding was not detected
# Conditions: [125I]Fab dissociating from the phage clone bearing the peptide; 4° C; excess free YGGFL added
# Description: An assay employing the anti-phage antisera was developed to determine the rate of dissociation of [^125 I]Fab from individual phage isolates. Individual fusion phase isolates were amplified in a 5 ml liquid culture of E. coli K91 cells and phage particles were isolated and quantitated as described above. In 1 ml microtiter minitubes, 25 μl of TBS containing approximately 2×10^9 infectious phage particles were incubated with […] of TBS/0.1% BSA containing 40,000 cpm of [^125 I]Fab for 10 minutes. Anti-phage antisera (25 μl of 1:1000 dilution in PBS/0.1%BSA) and staph A particles coated with goat anti-mouse IgG (25 μl of Tachisorb diluted eight-fold in TBS/0.1% BSA) were then added. Dissociation was initiated after 2 hours further incubation at 4° C. […] Filter bound radioactivity was determined by gamma counting. […] The time corresponding to a 50% reduction of initially bound [^125 I]Fab was determined by linear regression of a semi-logarithmic plot of amount bound vs. time.
Substance,Dissociation t1/2 (minutes),Dissociation t1/2 [min]
YGGLRH: hexapeptide isolated with 50 pM Fab,**,–
YGSFSL: hexapeptide isolated with 50 pM Fab,–,0.43
YGRFFH: hexapeptide isolated with 50 pM Fab,**,–
YGGFSP: hexapeptide isolated with 50 pM Fab,**,–
YGYWSL: hexapeptide isolated with 50 pM Fab,–,15.6
YGSFMA: hexapeptide isolated with 50 pM Fab,**,–
YGAFFQ: hexapeptide isolated with 50 pM Fab,–,13.4
YGGFLT: hexapeptide isolated with 50 pM Fab,–,17.9
YGFWSN: hexapeptide isolated with 50 pM Fab,–,7.4
YGVFSR: hexapeptide isolated with 50 pM Fab,–,2.8
YGGLVR: hexapeptide isolated with 50 pM Fab,–,0.50
YGAFGG: hexapeptide isolated with 50 pM Fab,–,5.0
YGGLSM: hexapeptide isolated with 50 pM Fab,–,0.96

# Source: patent publication US5432018A, “Peptide library and screening systems” (Affymax Technologies N.V., priority 1991, dated 1995)
